According to patent US6277860A, “Furopyridine antibacterials” (Pfizer Inc, priority 1999, dated 2001):
≈ marks a conversion by molar mass, not a printed value. Where two headings read alike, the source gives them in different places.

Key:
[1] = system: Enterococcus faecalis 03A1069; experiment: MIC by serial agar dilution method, Enterococcus faecalis 03A1069; assay type: cell-based
Protocol: (§1) Other strains which have similar characteristics of resistance to drugs may be also used. Such strains are usually available for those skilled in the art.
(§2) MIC: minimum inhibitory concentration; for more detail see below.
(§3) Each strain of S. aureus 01A1105, E faecalis 03A1069 and E. coli 51A0266 is inoculated and grown in tube containing 10 ml of Trypticase Soy Broth (TSB, DIFCO), overnight at 37° C. shaking at 200 rpm. The cell-concentration of the culture is adjusted by dilution with TSB and 50% aqueous glycerol to an optical density of 1.4 at 600 nm (light path=1 cm) and a final glycerol concentration of 20%. The diluted culture is dispensed to cryotubes, 1 ml per vial, and stored at -80° C. until its use.
(§4) Each stock culture, 200 μl for S. aureus and E. coli and 1 ml for E. faecalis, is added to 100 ml of Mueller Hinton medium (DIFCO), mixed and poured into an assay plate. The stock culture (1 ml) of S. pyogenes is inoculated into a tube containing 20 ml TSB and 1.0 ml defibrinated horse blood (Nippon Bio-Supply Center), and incubated statically at 37° C. for 24 hours. The incubated culture (5 ml) and 5 ml of sheep blood (Nippon Bio-Supply Center) were added to Mueller Hinton medium (100 ml), mixed and poured into an assay plate.
(§5) For determination of minimum inhibitory concentration (MIC), serial agar dilution method is used with same incubation condition as described above. The growth of bacteria is monitored by measuring the optical density at 655 nm.
(§6) The compound prepared in Example 1(2R*,3R*-2,3-dihydro-2-[(E)-2-buten-2-yl]-4-hydroxy-3-methyl-5-phenylfuro[2,3-b]pyridine-3-carbaldehyde ) was tested according to the assay method described in pages 12 to 14.

S. aureus 01A1105 = experiment: MIC by serial agar dilution method, S. aureus 01A1105; assay type: cell-based, Staphylococcus aureus
Protocol: as §1, §2, §3, §4, §5, §6

S. pyogenes 02C1068 = experiment: MIC by serial agar dilution method, S. pyogenes 02C1068; assay type: cell-based; details: for MIC: Streptococcus pyogenes
Protocol: as §1, §2
The strain of S. pyogenes 02C1068 was inoculated and grown in tubes, containing 10 ml of TSB with 0.5 ml of lysed horse blood (Nippon Bio-Supply Center), statically for 24 hours at 37° C. After the incubation, the cells were centrifuged and resuspended in a mixture of 50% aqueous glycerol (4 ml) and defibrinated sheep blood (6 ml, Nippon Bio-Supply Center). The resulting cell-suspension was dispensed to cryotubes, 1 ml per vial, and stored at -80° C. until its use.
as §4, §5, §6

Escherichia coli 51A0266 = experiment: MIC by serial agar dilution method, Escherichia coli 51A0266; assay type: cell-based
Protocol: as §1, §2, §3
as §4, with “The incubated culture (5 ml) and 5 ml of sheep blood (Nippon Bio-Supply Center) were added to Mueller Hinton medium (100 ml), mixed and poured into an assay plate.” left out
For determination of minimum inhibitory concentration (MIC), serial agar dilution method is used with same incubation condition as described above. The growth of bacteria is monitored by measuring the optical density at 655 nm. […]

E. coli 51A1075 = experiment: MIC by serial agar dilution method, E. coli 51A1075; assay type: cell-based, Escherichia coli
Protocol: as §2, §5, §6

S. hemolyticus 01E1006 = experiment: MIC by serial agar dilution method, S. hemolyticus 01E1006; assay type: cell-based
Protocol: as §2, §5, §6

[2] = system: Staphylococcus aureus 01A1095; experiment: MIC by serial agar dilution method, Staphylococcus aureus 01A1095; assay type: cell-based
Protocol: as §2, §5, §6

[3] = system: Moraxella catarrhalis 87A1055; experiment: MIC by serial agar dilution method, Moraxella catarrhalis 87A1055; assay type: cell-based
Protocol: as §2, §5, §6

S. pyogenes 02C1079 = experiment: MIC by serial agar dilution method, S. pyogenes 02C1079; assay type: cell-based
Protocol: as §2, §5, §6

E. coli 51A1051 = experiment: MIC by serial agar dilution method, E. coli 51A1051; assay type: cell-based, Escherichia coli
Protocol: as §2, §5, §6

various bacteria = experiment: Antibacterial assay, overall result in words; assay type: cell-based
Protocol: Sample solution is loaded and dried on a paper disk (i.d. 6 mm, thin, Advantec) which is placed on the assay plate and incubated overnight at 37° C. The activity is determined by measuring the size of growth-inhibition zone around the disk. As controls, vancomycin 1 μg and tetracycline 1 μg disks are used.
as §5, §6

S. pneumoniae 02J1095 = experiment: MIC by serial agar dilution method, S. pneumoniae 02J1095; assay type: cell-based, Streptococcus pneumoniae
Protocol: as §2, §5, §6

S. pneumoniae 02J1046 = experiment: MIC by serial agar dilution method, S. pneumoniae 02J1046; assay type: cell-based, Streptococcus pneumoniae
Protocol: as §2, §5, §6

E. coli 51A1074 = experiment: MIC by serial agar dilution method, E. coli 51A1074; assay type: cell-based, Escherichia coli
Protocol: as §2, §5, §6

E. coli 51A1073 = experiment: MIC by serial agar dilution method, E. coli 51A1073; assay type: cell-based, Escherichia coli
Protocol: as §2, §5, §6

[4] = system: Haemophilus influenzae 54A0085; experiment: MIC by serial agar dilution method, Haemophilus influenzae 54A0085; assay type: cell-based
Protocol: as §2, §5, §6

[5] = system: Streptococcus agalactiae 02B1023; experiment: MIC by serial agar dilution method, Streptococcus agalactiae 02B1023; assay type: cell-based
Protocol: as §2, §5, §6

S. aureus 01A1120 = experiment: MIC by serial agar dilution method, S. aureus 01A1120; assay type: cell-based, Staphylococcus aureus
Protocol: as §2, §5, §6

H. influenzae 54A0131 = experiment: MIC by serial agar dilution method, H. influenzae 54A0131; assay type: cell-based, Haemophilus influenzae
Protocol: as §2, §5, §6

[6] = Enterococcus faecalis, 03A1069, read-out: MIC (minimum inhibitory concentration)
[7] = Staphylococcus aureus, 01A1105, read-out: MIC (minimum inhibitory concentration)
[8] = Storeptococcus pyogenes 02C1068, antibiotic resistance of strain, read-out: MIC (minimum inhibitory concentration)
[9] = Staphylococcus aureus 01A1105, antibiotic resistance of strain, read-out: MIC (minimum inhibitory concentration)

CC(=O)OCC1=C(C(=O)O)N2C(=O)[C@@H](NC(=O)Cc3cccs3)[C@H]2SC1 [cephalothin]
MIC [1, 6]: 128 µg/mL (≈ 323 µM)

O=C(O)c1cn(C2CC2)c2cc(N3CCNCC3)c(F)cc2c1=O [ciprofloxacin]
MIC (S. aureus 01A1105; [7]): > 32 µg/mL

CC1(C)S[C@@H]2[C@H](NC(=O)Cc3ccccc3)C(=O)N2[C@H]1C(=O)O [penicillin G]
MIC [1, 6]: 6 µg/mL (≈ 17.9 µM) | MIC (S. aureus 01A1105; [7]): 64 µg/mL (≈ 191 µM)

CCC[C@@H]1C[C@@H](C(=O)N[C@@H]([C@H]2O[C@H](SC)[C@H](O)[C@@H](O)[C@H]2O)[C@H](C)Cl)N(C)C1 [clindamycin]
MIC (S. pyogenes 02C1068; [8]): > 64 µg/mL | MIC (S. aureus 01A1105; [9]): > 256 µg/mL

CC[C@H]1OC(=O)[C@H](C)[C@@H](O[C@H]2C[C@@](C)(OC)[C@@H](O)[C@H](C)O2)[C@H](C)[C@@H](O[C@@H]2O[C@H](C)C[C@H](N(C)C)[C@H]2O)[C@](C)(O)C[C@@H](C)CN(C)[C@H](C)[C@@H](O)[C@]1(C)O [azithromycin]
MIC ([1]; Enterococcus faecalis 03A1069, antibiotic resistance of strain, read-out: MIC (minimum inhibitory concentration)): > 256 µg/mL | MIC (S. pyogenes 02C1068; [8]): > 16 µg/mL

O=C(N[C@H](CO)[C@H](O)c1ccc([N+](=O)[O-])cc1)C(Cl)Cl [chloramphenicol]
MIC [1, 6]: 16 µg/mL (≈ 49.5 µM)

CO/N=C(\C(=O)N[C@@H]1C(=O)N2C(C(=O)O)=C(COC(C)=O)CS[C@H]12)c1csc(N)n1 [cefataxime]
MIC (S. aureus 01A1105; [9]): > 256 µg/mL

CC[C@H]1OC(=O)[C@H](C)[C@@H](O[C@H]2C[C@@](C)(OC)[C@@H](O)[C@H](C)O2)[C@H](C)[C@@H](O[C@@H]2O[C@H](C)C[C@H](N(C)C)[C@H]2O)[C@](C)(O)C[C@@H](C)C(=O)[C@H](C)[C@@H](O)[C@]1(C)O [erythromycin]
MIC (S. pyogenes 02C1068; 02C1068, read-out: MIC (minimum inhibitory concentration)): > 64 µg/mL | MIC (S. aureus 01A1105; [7]): > 256 µg/mL

CN[C@H](CC(C)C)C(=O)N[C@H]1C(=O)N[C@@H](CC(N)=O)C(=O)N[C@H]2C(=O)N[C@H]3C(=O)N[C@H](C(=O)N[C@H](C(=O)O)c4cc(O)cc(O)c4-c4cc3ccc4O)[C@H](O)c3ccc(c(Cl)c3)Oc3cc2cc(c3O[C@@H]2O[C@H](CO)[C@@H](O)[C@H](O)[C@H]2O[C@H]2C[C@](C)(N)[C@H](O)[C@H](C)O2)Oc2ccc(cc2Cl)[C@H]1O [vancomycin, reference compound]
MIC [1, 6]: 24 µg/mL (≈ 16.6 µM) | MIC (Escherichia coli 51A0266; Escherichia coli, 51A0266, read-out: MIC (minimum inhibitory concentration)): > 128 µg/mL

CN(C)C1C(=O)C(C(N)=O)=C(O)C2(O)C(=O)C3=C(O)c4c(O)cccc4C(C)(O)C3CC12 (stereo not drawn) [tetracycline]
MIC (S. aureus 01A1105; [7]): 128 µg/mL (≈ 288 µM)

COc1cccc(OC)c1C(=O)N[C@@H]1C(=O)N2[C@@H]1SC(C)(C)[C@@H]2C(=O)O [methicillin]
MIC (S. aureus 01A1105; [9]): > 256 µg/mL

gentamicin
MIC (minimum inhibitory concentration) (S. aureus 01A1105; Staphylococcus aureus 01A1105, antibiotic resistance of strain): 64 µg/mL

C/C=C(\C)[C@H]1Oc2ncc(-c3ccccc3)c(O)c2[C@@]1(C)C=O (relative stereo) [Example 1, 2R*,3R*-2,3-dihydro-2-[(E)-2-buten-2-yl]-4-hydroxy-3-methyl-5-phenylfuro[2,3-b]pyridine-3-carbaldehyde]
minimum inhibitory concentration (MIC) (E. coli 51A1075): 100 | minimum inhibitory concentration (MIC) (S. hemolyticus 01E1006): 100 | minimum inhibitory concentration (MIC) [2]: 100 | minimum inhibitory concentration (MIC) [3]: 50 | minimum inhibitory concentration (MIC) (S. pyogenes 02C1079): 12.5 | minimum inhibitory concentration (MIC) (E. coli 51A1051): > 100 | minimum inhibitory concentration (MIC) ([1]; Enterococcus faecalis 03A1069, multidrug resistant): 100 | antibacterial activity against various bacteria (various bacteria): remarkable antibacterial activity against various bacteria | minimum inhibitory concentration (MIC) (S. pneumoniae 02J1095): 6.25 | minimum inhibitory concentration (MIC) (S. pneumoniae 02J1046): 25 | minimum inhibitory concentration (MIC) (E. coli 51A1074): > 100 | minimum inhibitory concentration (MIC) (E. coli 51A1073): > 100 | minimum inhibitory concentration (MIC) [4]: 50 | minimum inhibitory concentration (MIC) [5]: 25 | minimum inhibitory concentration (MIC) (S. pyogenes 02C1068; S. pyogenes 02C1068, multidrug resistant): 6.25 | minimum inhibitory concentration (MIC) (S. aureus 01A1105; S. aureus 01A1105, multidrug resistant): 25 | minimum inhibitory concentration (MIC) (Escherichia coli 51A0266; Escherichia coli 51A0266): > 100 | minimum inhibitory concentration (MIC) (S. aureus 01A1120): 25 | minimum inhibitory concentration (MIC) (H. influenzae 54A0131): 100
